Legend:
[1] = test system: expression of co-stimulatory molecules by Raw 264 macrophage cells; assay: Flow cytometry of co-stimulatory molecules CD40 and CD80 on macrophages treated with analgesic, with or without LPS; type: cell-based, Murine; settings: LPS 5 ng/ml alone, no analgesic; negative control 20.6
Procedure: Murine RAW264.7 or J774 macrophage cells (obtained from ATCC) were used in this study. Cells were maintained in a culture medium containing RPMI 1640 supplemented with 10% fetal bovine serum (FBS), 15 mM HEPES, 2 mM L-glutamine, 100 U/ml penicillin, and 100 μg/ml of streptomycin. Cells were cultured at 37° C. in a 5% CO2 atmosphere and split (passages) once a week.
RAW264.7 macrophage cells were seeded in 96-well plates at a cell density of 1.5×10^5 cells per well in 100 μl of the culture medium. […] Briefly, the analgesics were dissolved in FBS-free culture medium (i.e., RPMI 1640 supplemented with 15 mM HEPES, 2 mM L-glutamine, 100 U/ml penicillin, and 100 μg/ml of streptomycin), and diluted to desired concentrations by serial dilution with the same medium. For cells treated with analgesic in the absence of LPS, 50 μl of analgesic solution and 50 μl of FBS-free culture medium were added to each well. For cells treated with analgesic in the presence of LPS, 50 μl of analgesic solution and 50 μl of LPS (from Salmonella typhimurium) in FBS-free culture medium were added to each well. All conditions were tested in duplicates.
After 24 or 48 hours of culture, 150 μl of culture supernatants were collected, spun down for 2 min at 8,000 rpm at 4° C. to remove cells and debris and stored at −70° C. for analysis of cytokine responses by ELISA. The cells were collected and washed by centrifugation (5 min at 1,500 rpm at 4° C.) in 500 μl of Phosphate buffer (PBS). Half of the cells were then snap frozen in liquid nitrogen and stored at −70° C. The remaining cells were stained with fluorescent monoclonal antibodies and analyzed by flow cytometry.
For flow cytometry analysis, macrophages were diluted in 100 μl of FACS buffer (phosphate buffered saline (PBS) with 2% bovine serum albumin (BSA) and 0.01% NaN3) and stained 30 min at 4° C. by addition of FITC-conjugated anti-CD40, PE-conjugated anti-CD80, PE-conjugated anti-CD86 antibody, anti MHC class II (I-A^d) PE (BD Bioscience). Cells were then washed by centrifugation (5 min at 1,500 rpm at 4° C.) in 300 μl of FACS buffer. After a second wash, cells were re-suspended in 200 μl of FACS buffer and the percentage of cells expressing a given marker (single positive), or a combination of markers (double positive) were analyzed with the aid of an Accuri C6 flow cytometer (BD Biosciences).

[2] = test system: COX2 expression by normal human bladder smooth muscle cells; assay: Cell-based ELISA of total COX2 in normal human bladder smooth muscle cells
Procedure: COX2 responses were analyzed by a Cell-Based ELISA using Human/mouse total COX2 immunoassay (R&D Systems), following the instructions of the manufacturer. Briefly, after cells fixation and permeabilization, a mouse anti-total COX2 and a rabbit anti-total GAPDH were added to the wells of the clear-bottom black 96-well cell culture microculture plates. After incubation and washes, an HRP-conjugated anti-mouse IgG and an AP-conjugated anti-rabbit IgG were added to the wells. Following another incubation and set of washes, the HRP- and AP-fluorogenic substrates were added. Finally, a Victor® V multilabel plate reader (PerkinElmer) was used to read the fluorescence emitted at 600 nm (COX2 fluorescence) and 450 nm (GAPDH fluorescence). Results are expressed as relative levels of total COX2 as determined by relative fluorescence unit (RFUs) and normalized to the housekeeping protein GAPDH.
(§1) Normal human bladder smooth muscle cells were isolated by enzymatic digestion from macroscopically normal pieces of human bladder. Cells were expended in vitro by culture at 37° C. in a 5% CO2 atmosphere in RPMI 1640 supplemented with 10% fetal bovine serum, 15 mM HEPES, 2 mM L-glutamine, 100 U/ml penicillin, and […] of streptomycin and passage once a week by treatment with trypsin to detach cells followed by reseeding in a new culture flask. The first week of culture, the culture medium was supplemented with 0.5 ng/ml epidermal growth factor, 2 ng/ml fibroblast growth factor, and 5 μg/ml insulin.
(§2) […] When no other effectors were added to the cells, 50 μl of RPMI 1640 without fetal bovine serum were added to the wells to adjust the final volume to 200 μl.
(§3) After 24 hours of culture, 150 μl of culture supernatants were collected, spun down for 2 min at 8,000 rpm at 4° C. to remove cells and debris and stored at −70° C. for analysis of Prostaglandin E2 (PGE2) responses by ELISA. Cells were fixed, permeabilized and blocked for detection of COX2 using a fluorogenic substrate. In selected experiment cells were stimulated 12 hours in vitro for analysis of COX2, PGE2 and cytokine responses.
(§4) COX2 and PGE2 responses were analyzed as described in Example 3. Cytokine responses were analyzed as described in Example 2.

[3] = test system: PGE2 secretion by normal human bladder smooth muscle cells; assay: PGE2 ELISA of normal human bladder smooth muscle cell supernatants; type: cell-based
Procedure: Prostaglandin E2 responses were analyzed by a sequential competitive ELISA (R&D Systems). More specifically, culture supernatants or PGE2 standards were added to the wells of a 96-well polystyrene microplate coated with a goat anti-mouse polyclonal antibody. After one hour incubation on a microplate shaker, an HRP-conjugated PGE2 was added and plates incubated for an additional two hours at room temperature. The plates were then washed and HRP substrate solution added to each well. The color was allowed to develop for 30 min and the reaction stopped by addition sulfuric acid before reading the plate at 450 nm with wavelength correction at 570 nm. Results are expressed as mean pg/ml of PGE2.
as §1, §2, §3, §4

[4] = test system: TNFα secretion by normal human bladder smooth muscle cells; assay: TNFα ELISA of normal human bladder smooth muscle cell supernatants; type: cell-based; settings: no analgesic
Procedure: (§5) Culture supernatants were subjected to cytokine-specific ELISA to determine IL-1β, IL-6 and TNF-α responses in cultures of macrophages treated with analgesic, LPS alone or a combination of LPS and analgesic. The assays were performed on Nunc MaxiSorp Immunoplates (Nunc) coated overnight with 100 μl of anti-mouse IL-6, TNF-α mAbs (BD Biosciences) or IL-1β mAb (R&D Systems) in 0.1 M sodium bicarbonate buffer (pH 9.5). After two washes with PBS (200 μl per well), 200 μl of PBS 3% BSA were added in each well (blocking) and the plates incubated for 2 hours at room temperature. Plates were washed again two times by addition of 200 μl per well, 100 μl of cytokine standards and serial dilutions of culture supernatants were added in duplicate and the plates were incubated overnight at 4° C. Finally, the plates were washed twice and incubated with 100 μl of secondary biotinylated anti-mouse IL-6, TNFα mAbs (BD Biosciences) or IL-1β (R&D Systems) followed by peroxidase-labelled goat anti-biotin mAb (Vector Laboratories). The colorimetric reaction was developed by the addition of 2,2′-azino-bis(3)-ethylbenzylthiazoline-6-sulfonic acid (ABTS) substrate and H2O2 (Sigma) and the absorbance measured at 415 nm with a Victor® V multilabel plate reader (PerkinElmer).
as §1
(§6) Bladder smooth muscle cells trypsinized and seeded in microculture plates at a cell density of 3×10^4 cells per well in 100 μl were treated with analgesic solutions (50 μl/well) either alone or together carbachol (10-Molar, 50 μl/well), as an example of non-inflammatory stimuli, or lipopolysaccharide (LPS) of Salmonella typhimurium (1 μg/ml, 50 μl/well), as an example of […] stimuli. When no other effectors were added to the cells, 50 μl of RPMI 1640 without fetal bovine serum were added to the wells to adjust the final volume to 200 μl.
as §3, §4

[5] = test system: IL-6 secretion by normal human bladder smooth muscle cells; assay: IL-6 ELISA of normal human bladder smooth muscle cell supernatants; type: cell-based; settings: no analgesic
Procedure: as §5, §1, §6, §3, §4

[6] = test system: TNFα secretion by normal human bladder smooth muscle cells; assay: TNFα ELISA of normal human bladder smooth muscle cell supernatants; type: cell-based; settings: stimulus alone, no analgesic (Carbachol 10^−3 M; LPS 10 μg/ml); unstimulated <5
[7] = test system: IL-6 secretion by normal human bladder smooth muscle cells; assay: IL-6 ELISA of normal human bladder smooth muscle cell supernatants; type: cell-based; settings: stimulus alone, no analgesic (Carbachol 10^−3 M; LPS 10 μg/ml); unstimulated <5
[8] = stimulus alone, no analgesic (Carbachol 10^−3 M; LPS 10 μg/ml), unstimulated <20.5

lipopolysaccharide [LPS]
% Positive CD40+CD80+ [1]: 77.8% | COX2 responses to stimulus alone ([2]; no analgesic): higher levels of COX2 responses | Total COX2 levels (Normalized RFUs) subject 2 ([2]; stimulus alone, no analgesic (Carbachol 10^−3 M; LPS 10 μg/ml), unstimulated 199): 633 Normalized RFUs | Total COX2 levels (Normalized RFUs) subject 1 ([2]; stimulus alone, no analgesic (Carbachol 10^−3 M; LPS 10 μg/ml), unstimulated 230): 672 Normalized RFUs | PGE2 production in response to stimulus alone ([3]; no analgesic): induced production of PGE2 | PGE2 levels (pg/ml) Subject 1 [3, 8]: 1125 pg/mL | PGE2 levels (pg/ml) Subject 2 [3, 8]: 998 pg/mL | TNFα responses to stimulus alone [4]: massive induction | IL-6 responses to stimulus alone [5]: massive induction | TNFα (pg/ml) Subject 1 [6]: 5725 pg/mL | TNFα (pg/ml) Subject 2 [6]: 4107 pg/mL | IL-6 (pg/ml) Subject 1 [7]: 4838 pg/mL | IL-6 (pg/ml) Subject 2 [7]: 4383 pg/mL

Source: patent publication US10596127B2, “Composition for reducing the frequency of urination, method of making and use thereof” (WELLESLEY PHARMACEUTICALS, LLC, priority 2013, dated 2020)
